Test results published in ChEMBL document CHEMBL6182928, “Characterization of Hepatotropic Small Molecule Inhibitors of Hypoxia Inducible Factor Prolyl Hydroxylase in the Prevention of Oxygen-Induced Retinopathy” (J Med Chem, 2025).
Blank lines part the entries; values can stand above or below the compound they belong to. Calls of active or inactive are those of the source. The rule behind the calls is not given here.

Experiments:
[1] = biological target: Hypoxia-inducible factor 1-alpha (Mus musculus) (UniProt Q61221); experiment: Induction of stabilization of HIF-1alpha in mouse NIH-3T3-HIF/Luc cells assessed as activation of HRE by measuring […] at 500 uM incubated for 24 hrs by Bright-glo luciferase assay; assay type: cell-based
[2] = biological target: Hypoxia-inducible factor 1-alpha (Homo sapiens) (UniProt Q16665); experiment: Induction of stabilization of HIF-1alpha in human Hep3B cells by measuring fold change protein level at 500 uM incubated for 3 hrs by Western blot analysis; assay type: cell-based
[3] = tested on: Mus musculus; experiment: (§1) Protection against oxygen-induced hypomyelination in mouse pup assessed as increase in vegf mRNA level in liver administered as ip dose on postnatal day 3, 5, 7 and reared in 80% oxygen exposure on postnatal day 4 to day 8 and measured on postnatal day 11; assay type: functional, organism-based; conditions: time 9.0 day
[4] = tested on: Mus musculus; experiment: Effect on myelination in oxygen-induced hypomyelination mouse pup model assessed as effect on myelin basic protein level in brain administered as ip dose on postnatal day 3, 5, 7 and reared in 80% oxygen exposure on postnatal day 4 to day 8 and measured on postnatal day 11 by Western blot analysis; assay type: functional, organism-based; conditions: time 9.0 day
[5] = tested on: Mus musculus; experiment: Protection against oxygen-induced hypomyelination in mouse pup assessed as increase in serpine1 mRNA level in liver administered as ip dose on postnatal day 3, 5, 7 and reared in 80% oxygen exposure on postnatal day 4 to day 8 and measured on postnatal day 11; assay type: functional, organism-based; conditions: time 9.0 day
[6] = tested on: Mus musculus; experiment: (§2) Protection against oxygen-induced retinopathy in mouse pup assessed as astrocyte survival administered as ip dose on postnatal day 6, 8, 10 and reared in 75% oxygen exposure on postnatal day 7 to day 12 and measured on postnatal day 17 by isolectin/GFAP based staining analysis; assay type: functional, organism-based; conditions: time 12.0 day
[7] = tested on: Mus musculus; experiment: In vivo inhibition of PHD in Luc-ODD mouse model assessed as stabilization of HIF-1alpha in brain at 1 mM, ip single dose on postnatal day 7 measured at 3 to 24 hrs by Bright-glo luciferase assay; assay type: functional, organism-based; conditions: time 3-24 hrs
[8] = tested on: Mus musculus; experiment: Effect on myelination in oxygen-induced hypomyelination mouse pup model assessed as effect on HIF-1alpha level in brain administered as ip dose on postnatal day 3, 5, 7 and reared in 80% oxygen exposure on postnatal day 4 to day 8 and measured on postnatal day 11 by Western blot analysis; assay type: functional, organism-based; conditions: time 9.0 day
[9] = tested on: Mus musculus; experiment: (§3) Protection against oxygen-induced retinopathy in liver-specific HIF knockout (LHKO) mouse pup assessed as reduction in retinal vaso-obliteration at 1 mmol/Kg, ip administered on postnatal day 6, 8, 10 and reared in 75% oxygen exposure on postnatal day 7 to day 12 and measured on postnatal day 17 by lectin based staining analysis; assay type: functional, organism-based; conditions: time 12.0 day
[10] = tested on: Mus musculus; experiment: In vivo inhibition of PHD in Luc-ODD mouse model assessed as stabilization of HIF-1alpha in liver at 1 mM, ip single dose on postnatal day 7 measured after 24 hrs by Bright-glo luciferase assay; assay type: functional, organism-based
[11] = tested on: Mus musculus; experiment: In vivo inhibition of PHD in Luc-ODD mouse model assessed as stabilization of HIF-1alpha in liver at 1 mM, ip single dose on postnatal day 8 measured after 3 hrs by Bright-glo luciferase assay; assay type: functional, organism-based
[12] = tested on: Mus musculus; experiment: as §1, with “bipolar cell activity by measuring amplitude of ERG b-wave” for “vegf mRNA level in liver”, “11 by electroretinogram analysis” for “11”; assay type: functional, organism-based; conditions: time 9.0 day
[13] = biological target: Hypoxia-inducible factor 1-alpha (Mus musculus) (UniProt Q61221); experiment: Induction of stabilization of HIF-1alpha in mouse NIH-3T3-HIF/Luc cells assessed as activation of HRE measured at 24 hrs by Bright-glo luciferase assay; assay type: cell-based
[14] = tested on: Mus musculus; experiment: In vivo inhibition of PHD in Luc-ODD mouse model assessed as stabilization of HIF-1alpha in kidney at 1 mM, ip single dose on postnatal day 8 measured after 3 hrs by Bright-glo luciferase assay; assay type: functional, organism-based
[15] = tested on: Mus musculus; experiment: as §2, with “glia preservation in total retinal flat mount” for “astrocyte survival”; assay type: functional, organism-based; conditions: time 12.0 day
[16] = biological target: Hypoxia-inducible factor 1-alpha (Homo sapiens) (UniProt Q16665); experiment: Induction of stabilization of HIF-1alpha in human Hep3B cells at 1 mM measured at 3 to 6 hrs by Immunoblot analysis; assay type: cell-based; conditions: time 3-6 hrs
[17] = tested on: Mus musculus; experiment: as §3, with “wild type C57BL/6J” for “liver-specific HIF knockout (LHKO)”, “avascular retina” for “retinal vaso-obliteration”; assay type: functional, organism-based; conditions: time 12.0 day
[18] = biological target: Hypoxia-inducible factor 1-alpha (Mus musculus) (UniProt Q61221); experiment: Induction of stabilization of HIF-1alpha in mouse NIH-3T3-HIF/Luc cells assessed as activation of HRE at 1 mM incubated for 24 hrs by Bright-glo luciferase assay; assay type: cell-based
[19] = tested on: Mus musculus; experiment: Protection against oxygen-induced hypomyelination in mouse pup assessed as increase in Bnip3 mRNA level in liver administered as ip dose on postnatal day 3, 5, 7 and reared in 80% oxygen exposure on postnatal day 4 to day 8 and measured on postnatal day 11; assay type: functional, organism-based; conditions: time 9.0 day
[20] = biological target: Hypoxia-inducible factor 1-alpha (Homo sapiens) (UniProt Q16665); experiment: Induction of stabilization of HIF-1alpha in human Hep3B cells incubated for 24 hrs by Immunoblot analysis; assay type: cell-based
[21] = biological target: Hypoxia-inducible factor 1-alpha (Homo sapiens) (UniProt Q16665); experiment: Induction of stabilization of HIF-1alpha in human Hep3B cells at 1 to 4 mM measured at 24 hrs by Immunoblot analysis; assay type: cell-based; conditions: dose 1-4 mM
[22] = tested on: Mus musculus; experiment: Protection against oxygen-induced hypomyelination in mouse pup assessed as increase in Cox4i2 mRNA level in liver administered as ip dose on postnatal day 3, 5, 7 and reared in 80% oxygen exposure on postnatal day 4 to day 8 and measured on postnatal day 11; assay type: functional, organism-based; conditions: time 9.0 day
[23] = biological target: Hypoxia-inducible factor 1-alpha (Mus musculus) (UniProt Q61221); experiment: Induction of stabilization of HIF-1alpha in mouse NIH-3T3-HIF/Luc cells assessed as activation of HRE at 1 to 4 mM measured at 48 hrs by Bright-glo luciferase assay; assay type: cell-based; conditions: dose 1-4 mM
[24] = tested on: Mus musculus; experiment: as §3, with “wild type C57BL/6J” for “liver-specific HIF knockout (LHKO)”; assay type: functional, organism-based; conditions: time 12.0 day
[25] = tested on: Mus musculus; experiment: as §3, with “wild type C57BL/6J” for “liver-specific HIF knockout (LHKO)”, “neovascularization” for “vaso-obliteration”; assay type: functional, organism-based; conditions: time 12.0 day
[26] = biological target: Hypoxia-inducible factor 1-alpha (Homo sapiens) (UniProt Q16665); experiment: Induction of stabilization of HIF-1alpha in human Hep3B cells measured at 3 hrs by Western blot analysis; assay type: cell-based

Hypoxia-inducible factor 1-alpha (Mus musculus), sequence (Q61221 whole entry): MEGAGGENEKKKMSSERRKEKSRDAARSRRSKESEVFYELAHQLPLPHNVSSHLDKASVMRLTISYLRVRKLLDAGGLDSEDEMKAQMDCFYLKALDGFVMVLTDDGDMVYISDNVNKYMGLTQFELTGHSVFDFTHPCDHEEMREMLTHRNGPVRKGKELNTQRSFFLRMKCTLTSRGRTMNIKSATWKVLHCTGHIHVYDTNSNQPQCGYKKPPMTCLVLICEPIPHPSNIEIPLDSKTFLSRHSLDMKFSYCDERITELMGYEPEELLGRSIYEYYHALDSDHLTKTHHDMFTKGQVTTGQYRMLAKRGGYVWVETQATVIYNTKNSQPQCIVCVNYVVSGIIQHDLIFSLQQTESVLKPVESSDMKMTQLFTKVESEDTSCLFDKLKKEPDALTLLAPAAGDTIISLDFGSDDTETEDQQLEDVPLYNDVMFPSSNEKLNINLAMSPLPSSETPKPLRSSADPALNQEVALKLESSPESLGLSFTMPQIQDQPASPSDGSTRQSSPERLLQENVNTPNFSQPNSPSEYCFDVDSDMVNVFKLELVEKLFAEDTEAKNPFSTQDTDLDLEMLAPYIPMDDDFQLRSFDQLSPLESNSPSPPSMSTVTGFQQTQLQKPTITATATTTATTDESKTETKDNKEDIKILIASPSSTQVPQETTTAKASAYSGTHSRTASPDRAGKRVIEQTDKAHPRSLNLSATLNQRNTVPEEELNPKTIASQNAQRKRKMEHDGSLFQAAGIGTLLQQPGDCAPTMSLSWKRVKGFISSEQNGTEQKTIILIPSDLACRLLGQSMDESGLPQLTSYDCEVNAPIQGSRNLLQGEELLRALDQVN
Hypoxia-inducible factor 1-alpha (Homo sapiens), sequence (Q16665 whole entry, looked up): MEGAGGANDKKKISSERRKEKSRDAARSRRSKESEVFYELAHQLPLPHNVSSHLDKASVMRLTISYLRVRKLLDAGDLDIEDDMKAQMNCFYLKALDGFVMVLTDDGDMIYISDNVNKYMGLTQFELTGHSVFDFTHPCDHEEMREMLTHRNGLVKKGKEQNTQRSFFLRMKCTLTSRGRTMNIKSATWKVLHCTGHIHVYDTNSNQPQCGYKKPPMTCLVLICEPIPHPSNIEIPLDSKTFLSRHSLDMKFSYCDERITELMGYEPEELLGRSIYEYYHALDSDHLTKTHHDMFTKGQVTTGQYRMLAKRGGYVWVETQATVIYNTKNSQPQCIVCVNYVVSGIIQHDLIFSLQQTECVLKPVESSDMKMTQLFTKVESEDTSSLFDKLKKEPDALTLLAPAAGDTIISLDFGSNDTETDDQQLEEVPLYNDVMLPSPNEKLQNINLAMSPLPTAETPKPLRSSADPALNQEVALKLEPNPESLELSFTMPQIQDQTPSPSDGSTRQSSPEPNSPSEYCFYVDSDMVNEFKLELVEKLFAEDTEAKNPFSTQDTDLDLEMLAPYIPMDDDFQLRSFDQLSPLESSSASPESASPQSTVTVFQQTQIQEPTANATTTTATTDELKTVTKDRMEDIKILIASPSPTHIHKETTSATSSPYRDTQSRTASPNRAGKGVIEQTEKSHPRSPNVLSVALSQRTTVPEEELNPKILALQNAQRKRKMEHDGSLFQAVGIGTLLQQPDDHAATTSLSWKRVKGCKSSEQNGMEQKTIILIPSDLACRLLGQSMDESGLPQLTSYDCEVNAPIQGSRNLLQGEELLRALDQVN

fold change (FC) [1]: < 1
fold change (FC) [2]: < 1
Structure (SMILES): COC(=O)C(=O)NCC(=O)OCOC(=O)OC(C)C

fold change (FC) [1]: < 1
fold change (FC) [2]: < 1
Structure (SMILES): COC(=O)C(=O)NCC(=O)OCOC(=O)C(C)C

fold change (FC) [1]: < 1
fold change (FC) [2]: 1
Structure (SMILES): CCC(=O)OCOC(=O)CNC(=O)C(=O)OC

fold change (FC) [1]: < 1
fold change (FC) [2]: < 1
Structure (SMILES): COC(=O)OCOC(=O)CNC(=O)C(=O)OC

fold change (FC) [1]: < 1
fold change (FC) [2]: < 1
Structure (SMILES): CCOC(=O)OCOC(=O)CNC(=O)C(=O)OC

fold change (FC) [1]: < 1
fold change (FC) [2]: 2
Structure (SMILES): COC(=O)C(=O)NCC(=O)OCOC(C)=O

fold change (FC) [1]: < 1
fold change (FC) [2]: < 1
Structure (SMILES): COC(=O)C(=O)NCC(=O)OCOC(=O)OC(C)(C)C

fold change (FC) [1]: < 1
fold change (FC) [2]: 1
Structure (SMILES): COC(=O)C(=O)NCC(=O)OCOC(=O)C(C)(C)C

Continued, compound first:

Structure (SMILES): COC(=O)C(=O)NCC(=O)OC(C)OC(=O)Oc1ccccc1 (centres undefined)
fold change (FC) [1]: < 2
fold change (FC) [2]: 5

Structure (SMILES): COC(=O)C(=O)NCC(=O)OC(C)OC(C)=O (centres undefined)
fold change (FC) [1]: < 2
fold change (FC) [2]: 6

Structure (SMILES): COC(=O)C(=O)NCC(=O)OC(C)C
Activity [3]: Active; Compound Showed Higher Mrna Expression In Liver Compared To Brain
Activity [4]: inactive
Activity [5]: Active; Compound Showed Higher Mrna Expression In Liver Compared To Brain
Activity [6]: Active
Activity [7]: inactive
Activity [8]: inactive
Activity [9]: Active; Less Protected Compared To Compound Treated Wild-Type Mouse
Activity [10]: Active
Activity [11]: Active
Activity [12]: Active
ED50 [13]: 1.14 mM
Activity [14]: Active
Activity [15]: Active
Activity [16]: Active
Activity [17]: Active
Activity [18]: Active
Activity [19]: Active; Compound Showed Higher Mrna Expression In Liver Compared To Brain
Activity [20]: Active
Activity [21]: inactive
Activity [22]: Active; Compound Showed Higher Mrna Expression In Liver Compared To Brain
Activity [23]: inactive
Activity [24]: Active
Activity [25]: Active
ED50 [26]: 2.13 mM

Structure (SMILES): COC(=O)C(=O)NCC(=O)OC(C)OC(=O)OC(C)C (centres undefined)
fold change (FC) [1]: < 2
fold change (FC) [2]: 3

Structure (SMILES): COC(=O)C(=O)NCC(=O)OCOC(=O)Oc1ccccc1
fold change (FC) [1]: < 1
fold change (FC) [2]: < 1

Structure (SMILES): COC(=O)C(=O)NCC(=O)OC(C)OC(=O)C(C)(C)C (centres undefined)
fold change (FC) [1]: < 2
fold change (FC) [2]: 6

Structure (SMILES): COC(=O)C(=O)NCC(=O)OC(C)OC(=O)OC(C)(C)C (centres undefined)
fold change (FC) [1]: < 2
fold change (FC) [2]: 2

Structure (SMILES): COC(=O)OC(C)OC(=O)CNC(=O)C(=O)OC (centres undefined)
fold change (FC) [1]: < 2
fold change (FC) [2]: 3

Structure (SMILES): CCC(=O)OC(C)OC(=O)CNC(=O)C(=O)OC (centres undefined)
fold change (FC) [1]: < 2
fold change (FC) [2]: 4

Structure (SMILES): COC(=O)C(=O)NCC(=O)OCOC(=O)c1ccccc1
fold change (FC) [1]: < 2
fold change (FC) [2]: 3

Structure (SMILES): CCOC(=O)OC(C)OC(=O)CNC(=O)C(=O)OC (centres undefined)
fold change (FC) [1]: < 2
fold change (FC) [2]: 3

Structure (SMILES): COC(=O)C(=O)NCC(=O)OC(C)OC(=O)c1ccccc1 (centres undefined)
fold change (FC) [1]: < 2
fold change (FC) [2]: 5

Structure (SMILES): COC(=O)C(=O)NCC(=O)OC(C)OC(=O)C(C)C (centres undefined)
fold change (FC) [1]: < 2
fold change (FC) [2]: 7
